Laboratory results reported in paper PMC11650737, “Developing MYC Degraders Bearing the Von Hippel–Lindau Ligand to Target the “Undruggable” MYC” (ACS Pharmacology & Translational Science, 2024).

How the values were obtained:
[1] = target: T1, recombinant bHLH-MYC protein (Homo sapiens, UniProt P01106); test: Direct binding to MYC by microscale thermophoresis (MST); conditions: compound 200 μM, labeled MYC 25 nM
T1 construct: The recombinant bHLHZ-Myc protein carrying an aminoterminal His6-tag; made in house; host or cells: bacteria
T1 sequence (P01106 368-452 limits assumed): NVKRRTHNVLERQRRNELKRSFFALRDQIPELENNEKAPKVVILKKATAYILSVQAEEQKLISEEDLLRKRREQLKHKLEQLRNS
Experimental: To investigate the capacity of MYC degraders to directly bind to MYC, microscale thermophoresis (MST) experiments were performed using recombinant bHLH-MYC protein. MST is a very sensitive, recently developed method based on the shift of fluorescent molecules moving in a temperature gradient that can be perturbed by interactions with other molecules. In this binding assay, a His6-tagged bHLH-MYC protein was fluorescently labeled via its hexa-histidine tag and subjected to MST measurement in the absence and in the presence of MYC degraders. All compounds tested shifted MYC thermophoresis (Figure 4), as shown by normalized fluorescence values, a clear indication that they bound directly to MYC. MST experiments were also run under identical conditions using two reference Myc inhibitors as positive controls: the biphenyl pyrazole MYCi361 and a thiazolidinone derivative, 10058-F4. Both are well-characterized MYC binders: The first one has been used as a POI ligand for the PROTACs designed and synthesized in this work, and the latter is widely known to inhibit MYC by specifically disrupting the MYC–Max complex formation.
Figure 4 Assay of direct binding to MYC by microscale thermophoresis (MST): MST of fluorescently labeled MYC (25 nM) mixed with several MYC degraders (200 μM) or the solvent alone (DMSO). MST of MYC binders 10058-F4 and MYCi361 used as positive controls. Data are shown as mean ± SEM.
Microscale thermophoresis (MST) assay was used to determine whether PROTACs bind directly to MYC. The recombinant bHLHZ-Myc protein carrying an aminoterminal His6-tag was expressed in bacteria from a plasmid kindly provided by George Sianidis (BRFAA, Greece) and purified, as previously described,[33] with minor modifications. […] MST was measured using a Monolith NT.115Pico with a red filter at an ambient temperature of 25 °C. […] Results were analyzed using the software provided with the Monolith instrument. Data are reported as ΔFnorm, which results from subtracting the normalized fluorescence value (Fnorm) of MYC in the absence of PROTAC from Fnorm in excess of PROTAC (bound state).

[2] = test system: various cancer cell lines; test: Cell viability (MTT) assay, cell line not singled out; type: cell-based; conditions: Homo sapiens, 72 h, summary over cancer cell lines (breast and prostate), read-out: IC50 (antiproliferative activity)
Experimental: The antiproliferative activity of the synthesized compounds was tested in cell viability assays optimally set up for various cancer cell lines (results are depicted in Table 2, n = 3, average IC50 (μM) ± SD).
Cells were plated at a density of 5 × 10^3 cells per well on 96-well plates. After 24 h of incubation (37 °C, 5% CO2), the cell medium was removed, and compounds were added at selected concentrations (0.1–100 μM), followed by incubation for 72 h. Control cells were treated with 0.4% DMSO medium to match the conditions in the wells where drugs were added. After 72 h, the medium was removed, and the 3-(4,5-dimethylthiazol-2-yl)-2,5-diphenyltetrazolium bromide (MTT) solution (0.3 mg/mL in PBS) was added to cells for 3 h under no light conditions. The MTT solution was removed, and the formazan crystals were dissolved in 100 μL of DMSO. The optical density was measured at 570 nm with a reference wavelength of 690 nm using an absorbance microplate reader (SpectraMax 190, Molecular Devices, Sunnyvale, CA, USA). The half-maximal inhibitory concentration (IC50) was calculated based on a four-parameter logistic equation, generating a cell viability curve, using GraphPad Prism 6.01 (GraphPad Software, Inc.). […] The resulting absorbance values were used instead of IC50 calculation. […]

Compound: Cc1ncsc1-c1ccc(CNC(=O)[C@@H]2C[C@@H](O)CN2C(=O)[C@@H](NC(=O)CCCC(=O)NCCCOc2ccc(-c3cc(C(F)(F)F)nn3C)c(O)c2-c2cc(C(F)(F)F)cc(C(F)(F)F)c2)C(C)(C)C)cc1 [CSI107]
- direct binding to MYC (shift of MYC thermophoresis) [1]: equally potent
- IC50 [2]: 13 to 18 µM

Compound: Cc1ncsc1-c1ccc(CNC(=O)[C@@H]2C[C@@H](O)CN2C(=O)[C@@H](NC(=O)CCC(=O)NCCCOc2ccc(-c3cc(C(F)(F)F)nn3C)c(O)c2-c2cc(C(F)(F)F)cc(C(F)(F)F)c2)C(C)(C)C)cc1 [CSI86]
- direct binding to MYC (shift of MYC thermophoresis) [1]: equally potent
- IC50 [2]: 13 to 18 µM

Compound: Cc1ncsc1-c1ccc(CNC(=O)[C@@H]2C[C@@H](O)CN2C(=O)[C@@H](NC(=O)COCCOCC(=O)NCCCOc2ccc(-c3cc(C(F)(F)F)nn3C)c(O)c2-c2cc(C(F)(F)F)cc(C(F)(F)F)c2)C(C)(C)C)cc1 [CSI135]
- direct binding to MYC (shift of MYC thermophoresis) [1]: equally potent
